According to ChEMBL document CHEMBL1140504, “Mimetics of the tri- and tetrasaccharide epitope of GQ1balpha as myelin-associated glycoprotein (MAG) ligands” (Bioorg Med Chem, 2007):
The source made the active and inactive calls. The rule behind the calls is not given here.

Target: T1, Myelin-associated glycoprotein (Homo sapiens) (UniProt P20916)
T1 sequence (whole entry): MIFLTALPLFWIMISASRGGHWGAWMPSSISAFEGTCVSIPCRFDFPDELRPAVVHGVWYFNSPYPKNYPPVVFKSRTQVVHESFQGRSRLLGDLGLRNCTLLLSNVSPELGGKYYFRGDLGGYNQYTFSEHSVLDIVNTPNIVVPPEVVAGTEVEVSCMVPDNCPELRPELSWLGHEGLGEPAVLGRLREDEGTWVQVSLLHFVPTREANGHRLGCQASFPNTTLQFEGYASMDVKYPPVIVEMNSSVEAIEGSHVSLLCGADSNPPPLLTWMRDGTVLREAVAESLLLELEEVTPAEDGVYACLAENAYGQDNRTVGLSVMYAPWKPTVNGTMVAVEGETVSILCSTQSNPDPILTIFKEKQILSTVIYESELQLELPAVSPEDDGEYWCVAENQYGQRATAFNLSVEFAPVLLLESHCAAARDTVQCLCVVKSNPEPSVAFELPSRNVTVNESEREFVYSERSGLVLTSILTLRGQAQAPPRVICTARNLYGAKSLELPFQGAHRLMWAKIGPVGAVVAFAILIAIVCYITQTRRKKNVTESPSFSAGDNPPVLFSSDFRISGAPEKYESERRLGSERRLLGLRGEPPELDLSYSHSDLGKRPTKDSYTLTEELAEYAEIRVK
Test: Ratio of IC50 for drug to sodium (2S,4S,5R,6R)-5-acetami do-2-((2R,3R,4S,5S,6R)-2-((2R, 3R,4S,6S)-3-acetamido-6-(hydro xymethyl)-2-(2-(trimethylsilyl )ethoxy)-tetrahydro-2H-pyran-4 -yloxy)-3,5-dihydroxy-6-(hydro xymethyl)-tetrahydro-2H-pyran- 4-yloxy)-4-hydroxy-6-((1S,2R)- 1,2,3-trihydroxypropyl)-tetrah ydro-2H-pyran-2-carboxylate for human recombinant MAG N-terminal domain expressed in CHO cells
Format: cell-based

Compound | Ratio IC50 | Activity
CC(=O)N[C@H]1[C@H]([C@@H](O)[C@H](O)CO)O[C@@](Oc2cccc(-c3cn(-c4ccc(C(=O)O)cc4)nn3)c2)(C(=O)O)C[C@@H]1O | 0.9 | –
CC(=O)N[C@H]1[C@H]([C@@H](O)[C@H](O)CO)O[C@@](Oc2ccc(Oc3ccccc3)cc2)(C(=O)O)C[C@@H]1O | 0.89 | –
CC(=O)N[C@H]1[C@H]([C@@H](O)[C@H](O)CO)O[C@@](Oc2cccc(-c3ccc(CC(=O)O)cc3)c2)(C(=O)O)C[C@@H]1O | 1 | –
CC(=O)N[C@H]1[C@H](OCC[Si](C)(C)C)O[C@H](CO[C@]2(C(=O)O)C[C@H](O)[C@@H](NC(C)=O)[C@H]([C@H](O)[C@H](O)CO)O2)C[C@@H]1O[C@@H]1O[C@H](CO)[C@H](O)[C@H](O[C@]2(C(=O)O)C[C@H](O)[C@@H](NC(C)=O)[C@H]([C@@H](O)[C@H](O)CO)O2)[C@H]1O | 4 | –
CC(=O)N[C@H]1[C@H]([C@@H](O)[C@H](O)CO)O[C@@](Oc2cccc(-c3cn(CC(=O)O)nn3)c2)(C(=O)O)C[C@@H]1O | 1.1 | –
CO[C@]1(C(=O)O)C[C@H](O)[C@@H](NC(C)=O)[C@H]([C@@H](O)[C@H](O)CO)O1 | 0.07 | –
CC(=O)N[C@H]1[C@H]([C@@H](O)[C@H](O)CO)O[C@](Oc2ccc(Oc3ccccc3)cc2)(C(=O)O)C[C@@H]1O | – | inactive

Results, then the compound that gave them:

Ratio IC50 | Activity | Compound
0.62 | – | CC(=O)N[C@H]1[C@H]([C@@H](O)[C@H](O)CO)O[C@@](OCc2ccccc2)(C(=O)O)C[C@@H]1O
– | inactive | CC(=O)N[C@H]1[C@H]([C@@H](O)[C@H](O)CO)O[C@](OCc2cccc(Oc3ccccc3)c2)(C(=O)O)C[C@@H]1O
0.38 | – | CC(=O)N[C@H]1[C@H]([C@@H](O)[C@H](O)CO)O[C@@](OCc2ccc(-c3ccccc3)cc2)(C(=O)O)C[C@@H]1O
